Legend:
IRS1 [1] = assay: Western blotting of muscle lysates of HFD mice: IRS1; type: in vivo; conditions: 12.5 mg/kg i.p. every other day for 4 weeks, vs diluent (FIG. 3J)
Experimental: (§1) Another model was generated of insulin resistance by feeding wild type mice a high fat diet (HFD: 58% kcal from fat, Research Diets, New Brunswick, N.J.) for 12 weeks while control mice were fed the regular diet (RD: 11% kcal from fat). To study the effect of p-Stat3 on insulin resistance, HFD-fed mice were randomly assigned to two subgroups: one subgroup was injected intraperitoneally (i.p.) with TTI-101 (12.5 mg/kg body weight in D5W) every other day for 4 weeks, while the other subgroup received an identical volume of D5W for 4 weeks. Antibodies: The primary antibodies of p-Akt ([…]) (D9E) #4060, Akt (40D4)#2920, p-Stat3 ([…]) (D3A7)#9145, Stat3(124H6)#9139 were from Cell Signaling technology (Beverly, Mass., USA). Antibody against Fbxo40 #ab190688 was from Abcam (Cambridge, Mass., USA). Antibody against IRS1 #611395 was obtained from BD Biosciences (San Jose, Calif.). Anti-GAPDH#PA1-987 was from Thermo Fisher Scientific. The antibody was verified by the molecular size of recognized proteins.

IRS1 [2] = assay: qPCR of IRS1 mRNA in TA muscles of CKD mice; type: in vivo; conditions: vs D5W diluent (FIG. 2H)
Experimental: (§2) Animals: The experimental procedures were approved by the Institutional Animal Care and Use Committee of Baylor College of Medicine. Wild type (WT) mice (C57BL/6) were purchased from Jackson lab (Bar Harbor, Me.). To create a model of CKD, 8-10 week old mice underwent subtotal nephrectomy or sham-operated control as described; ^31 CKD mice with a BUN ˜80 mg/dl were studied. CKD or sham-operated control mice were assigned to two subgroups: one subgroup was injected intraperitoneally with TTI-101 (12.5 mg/kg body weight in D5W) every other day for 2 weeks, while the other subgroup received an identical volume of D5W for 2 weeks.
(§3) RNA extraction and quantitative real-time PCR (qPCR): RNAs were isolated using the RNeasy kit (Qiagen, Valencia, Calif.) as instructed by the company. RT-PCR was performed to obtain relative gene expressions by calculating cycle threshold (Ct) values using GAPDH as an internal control (relative expression=2(sample Ct−GAPDH Ct)).^35 Sequences of primers will be provided upon request.

Fbxo40 [3] = assay: qPCR of Fbxo40 mRNA in TA muscles of CKD mice; type: in vivo; conditions: vs D5W diluent (FIG. 2G)
Experimental: as §2, §3

Fbxo40 [4] = assay: Western blotting of tibialis anterior muscle lysates of CKD mice: Fbxo40 protein; type: in vivo; conditions: western blotting (FIGS. 2I and 2J)
Experimental: as §2, with “80” for “˜80”, “weeks. Antibodies: The primary antibodies of p-Akt (Ser473) (D9E) #4060, Akt (40D4)#2920, p-Stat3 (Tyr705) ([…])#9145, Stat3(124H6)#9139 were from Cell Signaling technology (Beverly, Mass., USA). Antibody against Fbxo40 #ab190688 was from Abcam (Cambridge, Mass., USA). Antibody against IRS1 #611395 was obtained from BD Biosciences (San Jose, Calif.). Anti-GAPDH#PA1-987 was from Thermo Fisher Scientific. The antibody was verified by the molecular size of recognized proteins.” for “weeks.”

p-Akt [5] = assay: Western blotting of gastrocnemius muscle lysates of CKD mice: p-Akt; type: in vivo; conditions: 12.5 mg/kg i.p. every other day for 2 weeks, western blotting (FIG. 1D)
Experimental: as §2, with “80” for “˜80”, “weeks. Antibodies: The primary antibodies of p-Akt (Ser473) (D9E) #4060, Akt (40D4)#2920, p-Stat3 (Tyr705) ([…])#9145, Stat3(124H6)#9139 were from Cell Signaling technology (Beverly, Mass., USA). Antibody against Fbxo40 #ab190688 was from Abcam (Cambridge, Mass., USA). Antibody against IRS1 #611395 was obtained from BD Biosciences (San Jose, Calif.). Anti-GAPDH#PA1-987 was from Thermo Fisher Scientific. The antibody was verified by the molecular size of recognized proteins.” for “weeks.”

HFD-fed mice = assay: High fat diet (HFD) mice: fasting blood glucose, glucose tolerance test, insulin tolerance test; type: in vivo; conditions: mice fed HFD 12 weeks
Experimental: Another model was generated of insulin resistance by feeding wild type mice a high fat diet (HFD: 58% kcal from fat, Research Diets, New Brunswick, N.J.) for 12 weeks while control mice were fed the regular diet (RD: 11% kcal from fat). To study the effect of p-Stat3 on insulin resistance, HFD-fed mice were randomly assigned to two subgroups: one subgroup was injected intraperitoneally (i.p.) with TTI-101 (12.5 mg/kg body weight in D5W) every other day for 4 weeks, while the other subgroup received an identical volume of D5W for 4 weeks. For glucose tolerance tests (GTT), mice with free access to water were fasted for 16 hrs and then injected intraperitoneally (i.p.) with […] and tail vein blood was collected at 0, 30, 60 and 120 min intervals to measure blood glucose concentrations using a True Track Glucometer. For insulin tolerance test (ITT), mice were fasted for 4 hrs, then were injected i.p. with 2 units/kg insulin; tail vein blood was collected after 0, 30, 60 and 120 min to measure blood glucose concentrations. Changes in blood glucose were analyzed as the “area under curve” (AUC) method using Statstodo program (http://www.statstodo.com/AUC_Exp.php).

p-Akt [6] = assay: Western blotting of muscle lysates of HFD mice: p-Akt; type: in vivo; conditions: 12.5 mg/kg i.p. every other day for 4 weeks, vs diluent (FIG. 3J)
Experimental: as §1

p-Stat3 = assay: Western blotting of gastrocnemius muscle lysates of CKD mice: p-Stat3; type: in vivo; conditions: 12.5 mg/kg i.p. every other day for 2 weeks, western blotting (FIG. 1D)
Experimental: Animals: The experimental procedures were approved by the Institutional Animal Care and Use Committee of Baylor College of Medicine. Wild type (WT) mice (C57BL/6) were purchased from Jackson lab (Bar Harbor, Me.). To create a model of CKD, 8-10 week old mice underwent subtotal nephrectomy or sham-operated control as described; ^31 CKD mice with a BUN 80 mg/dl were studied. […] Antibodies: The primary antibodies of p-Akt (Ser473) (D9E) #4060, Akt (40D4)#2920, p-Stat3 (Tyr705) ([MUT])#9145, Stat3(124H6)#9139 were from Cell Signaling technology (Beverly, Mass., USA). Antibody against Fbxo40 #ab190688 was from Abcam (Cambridge, Mass., USA). Antibody against IRS1 #611395 was obtained from BD Biosciences (San Jose, Calif.). Anti-GAPDH#PA1-987 was from Thermo Fisher Scientific. The antibody was verified by the molecular size of recognized proteins.

mice with CKD [7] = assay: CKD mice (subtotal nephrectomy): body weight, fasting blood glucose, glucose tolerance test; type: in vivo
Experimental: Animals: The experimental procedures were approved by the Institutional Animal Care and Use Committee of Baylor College of Medicine. Wild type (WT) mice (C57BL/6) were purchased from Jackson lab (Bar Harbor, Me.). To create a model of CKD, 8-10 week old mice underwent subtotal nephrectomy or sham-operated control as described; ^31 CKD mice with a BUN ˜80 mg/dl were studied. CKD or sham-operated control mice were assigned to two subgroups: one subgroup was injected intraperitoneally with TTI-101 (12.5 mg/kg body weight in D5W) every other day for 2 weeks, while the other subgroup received an identical volume of D5W for 2 weeks. For glucose tolerance tests (GTT), mice with free access to water were fasted for 16 hrs and then injected intraperitoneally (i.p.) with […] and tail vein blood was collected at 0, 30, 60 and 120 min intervals to measure blood glucose concentrations using a True Track Glucometer. For insulin tolerance test (ITT), mice were fasted for 4 hrs, then were injected i.p. with 2 units/kg insulin; tail vein blood was collected after 0, 30, 60 and 120 min to measure blood glucose concentrations. Changes in blood glucose were analyzed as the “area under curve” (AUC) method using Statstodo program (http://www.statstodo.com/AUC_Exp.php).

mice with CKD [8] = conditions: earlier experiments (refs 33, 34); cited from earlier work

With `COc1ccc(S(=O)(=O)Nc2cc(-c3c(O)ccc4ccccc34)c(O)c3ccccc23)cc1` [TTI-101, N-(1′,2-dihydroxy-1,2′-binaphthalen-4′-yl)-4-methoxybenzenesulfonamide] the “IRS1 levels in muscles” value (IRS1 [1]) was “higher levels”, the “IRS1 mRNAs in muscles” value (IRS1 [2]) was “increased” and the “Fbxo40 mRNA in muscles” value (Fbxo40 [3]) was “suppression”. For the same compound, the “Fbxo40 protein in muscles” value (Fbxo40 [4]) was “significantly decreased”, the “p-Akt in muscle lysates” value (p-Akt [5]) was “increasing” and the “fasting values of blood glucose” value (HFD-fed mice; then 12.5 mg/kg i.p. every other day for 4 weeks with HFD continued, vs diluent (FIG. 3G)) was “decreased”. The glucose tolerance (HFD-fed mice; then 12.5 mg/kg i.p. every other day for 4 weeks, vs diluent (FIG. 3H)) was “improved”, the insulin tolerance (HFD-fed mice; then 12.5 mg/kg i.p. every other day for 4 weeks, vs diluent (FIG. 3I)) was “improved” and the “p-Akt levels in muscles” value (p-Akt [6]) was “higher levels”. For the same compound, the “p-Stat3 in muscle lysates” value (p-Stat3) was “suppressed”, the glucose tolerance (mice with CKD [7]; 12.5 mg/kg i.p. every other day for 2 weeks, vs D5W diluent (FIG. 1C)) was “significantly improved” and the body weight (mice with CKD [7]; 12.5 mg/kg i.p. every other day, after 2 weeks of treatment, vs D5W diluent (FIG. 1A)) was “increased”. The “blood glucose levels (fasting, 16 hr)” value (mice with CKD [7]; 12.5 mg/kg i.p. every other day, after 2 weeks of treatment, vs D5W diluent (FIG. 1B)) was “decreased” and the “body weights of mice” value (mice with CKD [8]) was “increases”.

Reference: patent US20230077280A1, “THERAPEUTIC COMPOUNDS FOR METHODS OF USE IN INSULIN RESISTANCE” (Baylor College of Medicine, priority 2019, published 2023)
